Laboratory results as given in patent US20240316079A1, “USE OF AKR1C3-ACTIVATED COMPOUND” (OBI PHARMA, INC., priority 2021, published 2024).
Like-named read-outs stand apart in the source and are kept apart here.

Key:
recombinant human AKR1C1 = biological target: T1, recombinant human AKR1C1 (Homo sapiens, UniProt Q04828); assay: Incubation of 3424 with AKR1C1 (2660 production, LC-MS/MS); format: biochemical
T1 construct: purchased Sigma

recombinant human AKR1C4 = biological target: T2, recombinant human AKR1C4 (Homo sapiens, UniProt P17516); assay: Incubation of 3424 with AKR1C4 (2660 production, LC-MS/MS); format: biochemical
T2 construct: purchased Sigma
T2 sequence (P17516 whole entry): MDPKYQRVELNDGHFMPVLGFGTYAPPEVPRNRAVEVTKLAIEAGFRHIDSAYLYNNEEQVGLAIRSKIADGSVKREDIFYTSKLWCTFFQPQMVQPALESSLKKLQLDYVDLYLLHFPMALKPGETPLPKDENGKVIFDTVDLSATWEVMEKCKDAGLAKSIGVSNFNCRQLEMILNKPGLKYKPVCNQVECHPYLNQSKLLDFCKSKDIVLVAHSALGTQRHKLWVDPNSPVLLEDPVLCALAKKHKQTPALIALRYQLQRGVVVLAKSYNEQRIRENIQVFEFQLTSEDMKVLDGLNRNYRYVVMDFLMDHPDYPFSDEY

C3A = assay: In vitro proliferation assay, liver cancer cell line C3A; format: cell-based; settings: Homo sapiens, 96 hours of drug exposure, AKR1C3 protein high, read-out: 3424 IC50
Description: (§1) IC50 was calculated as described above.

HLE = assay: In vitro proliferation assay, liver cancer cell line HLE; format: cell-based; settings: Homo sapiens, 96 hours of drug exposure, AKR1C3 protein Medium, read-out: 3424 IC50
Description: as §1

SK-HEP-1 = assay: In vitro proliferation assay, liver cancer cell line SK-HEP-1; format: cell-based; settings: Homo sapiens, SK-HEP1, 96 hours of drug exposure, AKR1C3 protein Low, read-out: 3424 IC50
Description: as §1

SNU-398 = assay: In vitro proliferation assay, liver cancer cell line SNU-398; format: cell-based; settings: Homo sapiens, 96 hours of drug exposure, AKR1C3 protein Low, read-out: 3424 IC50
Description: as §1

NCI-H1944 = assay: In vitro proliferation assay, NSCLC cell line NCI-H1944; format: cell-based; settings: Homo sapiens, 72 hours of drug exposure, read-out: 3424 IC50
Description: as §1

NCI-H1563 = assay: In vitro proliferation assay, NSCLC cell line NCI-H1563; format: cell-based; settings: Homo sapiens, 72 hours of drug exposure, read-out: 3424 IC50
Description: as §1

NCI-H522 = assay: In vitro proliferation assay, NSCLC cell line NCI-H522; format: cell-based; settings: Homo sapiens, 72 hours of drug exposure, read-out: 3424 IC50
Description: as §1

VCaP xenograft = assay: Castration-resistant prostate cancer VCaP xenograft model
Description: (§2) Death and observed clinical signs were recorded on the basis of the numbers of animals within each subset.

A498 xenograft = test system: A498 xenograft
Description: as §2

SNU-16 xenograft = test system: SNU-16 xenograft
Description: as §2

GA6201 PDX = assay: Gastric cancer PDX model GA6201; format: in vivo, mice
Description: (§3) Anti-tumor activity of 3424 in PDX models was assessed at CrownBio Bioscience (Beijing, China) Inc. using female BALB/c nude mice (6-7 weeks old, Beijing Anikeeper Biotech Co., Ltd, Beijing, China). Tumor fragments (PA1280, GA6201, LU2057 and LU2505) from stock mice inoculated with selected primary human cancer tissues (pancreatic, gastric cancer, and lung) were harvested and used for inoculation into BALB/c nude mice. Each mouse was inoculated subcutaneously for tumor development. Mice were allocated randomly into experimental groups when the average tumor size reached ˜100 mm^3) by using StudyDirector™ Ver 3.1.399.19 (Studylog Systems, Inc., S. San Francisco, CA, USA). Prodrug 3424 was administered IV at the indicated doses with a regimen of Q7D×3. Each group consisted of 5-6 mice. The grouping day was denoted as Day 0. Prodrug 3424 was administrated to the tumor-bearing mice from Day 0 through Days as indicated for each study.

LU2505 PDX = assay: Lung cancer PDX model LU2505 (higher AKR1C3); format: in vivo, mice
Description: as §3

H460 cells = assay: Cytotoxicity in H460 cells in the absence or presence of AKR1C3 inhibitor 3021; settings: Homo sapiens, NCI-H460, 2 h, read-out: IC50 (cytotoxicity)
Description: Exponentially growing cells were seeded 24 hours before the addition of test compounds. After addition of test compounds, the plates were incubated for the indicated hours at 37° C. in a standard tissue culture incubator. At the end of the experiment, the viable cells were detected using either a CellTiter Glo (CTG) assay kit or AlamarBlue^(28,29). […] For 3021 experiments, cells were pretreated with 3 μM of 3021 for 2 h prior to compound treatment under air. IC50 was calculated as described above.

[1] = 3424 2.5 mg/kg weekly IV for 4 doses

T1 sequence (Q04828 whole entry): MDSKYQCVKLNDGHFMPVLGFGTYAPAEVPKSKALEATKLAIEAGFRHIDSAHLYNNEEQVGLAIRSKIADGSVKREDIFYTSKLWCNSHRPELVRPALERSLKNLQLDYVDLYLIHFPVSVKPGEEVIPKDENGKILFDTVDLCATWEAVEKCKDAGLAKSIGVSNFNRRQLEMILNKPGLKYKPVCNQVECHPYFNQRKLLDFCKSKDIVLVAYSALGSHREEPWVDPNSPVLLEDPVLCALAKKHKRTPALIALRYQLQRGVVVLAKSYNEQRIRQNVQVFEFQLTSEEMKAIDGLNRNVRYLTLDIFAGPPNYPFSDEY

**Q.** C[C@H](OP(=O)(N1CC1)N1CC1)c1ccc([N+](=O)[O-])c(Oc2cccc(C(=O)N(C)C)c2)c1 [Compound 3424, (S)-1-(3-(3-N,N-dimethylaminocarbonyl)phenoxyl-4-mtrophenyl)-1-ethyl-N,N′-bis(ethylene)phosphoramidate] was tested. Which “metabolism by AKR1C1” value (recombinant human AKR1C1) did it give?
**A.** Its value is “not metabolized”.

**Q.** What about the “2660 Concentration” value (recombinant human AKR1C1; 3424 concentration 50 μM, incubation with AKR1C1, BQL: below quantification limit (0.25 ng/mL)) of the same compound?
**A.** Its value is “BQL”.

**Q.** What about the “metabolism by AKR1C4” value (recombinant human AKR1C4) of the same compound?
**A.** The value was “not metabolized”.

**Q.** What about the “2660 Concentration” value (recombinant human AKR1C4; 3424 concentration 50 μM, incubation with AKR1C4, BQL: below quantification limit (0.25 ng/mL)) of the same compound?
**A.** The value was “BQL”.

**Q.** And the IC50 (C3A)?
**A.** Its IC50 is 5 nM.

**Q.** And the IC50 (HLE)?
**A.** Its IC50 is 113 nM.

**Q.** What about the IC50 (SK-HEP-1) of the same compound?
**A.** Its IC50 is over 1000 nM.

**Q.** What about the IC50 (SNU-398) of the same compound?
**A.** Its IC50 is over 1000 nM.

**Q.** What about the IC50 (NCI-H1944) of the same compound?
**A.** The IC50 was 2.3 nM.

**Q.** What about the IC50 (NCI-H1563) of the same compound?
**A.** The IC50 was 2.5 nM.

**Q.** What about the IC50 (NCI-H522) of the same compound?
**A.** Its IC50 is over 1000 nM.

**Q.** And the TGI (VCaP xenograft; 3424 5 mg/kg weekly IV for 5 doses, castrated male BALB/c nude mice)?
**A.** Its TGI is 148%.

**Q.** What about the “tolerability / body weight loss during treatment” value (VCaP xenograft; VCaP model, data not shown) of the same compound?
**A.** Its value is “no significant body weight loss”.

**Q.** What about the TGI (A498 xenograft; [1]) of the same compound?
**A.** The TGI was 73%.

**Q.** And the “tolerability / body weight loss during treatment” value (A498 xenograft; A498 model, data not shown)?
**A.** The value was “no significant body weight loss”.

**Q.** What about the TGI (SNU-16 xenograft; [1]) of the same compound?
**A.** The TGI was 87.8%.

**Q.** And the TGI (SNU-16 xenograft; 3424 5 mg/kg weekly IV for 4 doses)?
**A.** The TGI was 96.2%.

**Q.** What about the “tolerability / body weight loss during treatment” value (SNU-16 xenograft; SNU-16 model, data not shown) of the same compound?
**A.** The value was “no significant body weight loss”.

**Q.** What about the TGI (GA6201 PDX; 3424 5 mg/kg i.v. Q7D × 3) of the same compound?
**A.** Its TGI is 110%.

**Q.** And the “mice remaining tumor free” value (GA6201 PDX; 3424 5 mg/kg, at the end of the study)?
**A.** The value was 60%.

**Q.** What about the “tolerability / body weight loss” value (GA6201 PDX; GA6201, all tested doses) of the same compound?
**A.** The value was “no body weight loss”.

**Q.** And the TGI (LU2505 PDX; 3424 1.25 mg/kg i.v. Q7D × 3)?
**A.** The TGI was 105.0%.

**Q.** And the TGI (LU2505 PDX; 3424 2.5 mg/kg i.v. Q7D × 3)?
**A.** The TGI was 105.2%.

**Q.** What about the TGI (LU2505 PDX; 3424 5 mg/kg i.v. Q7D × 3) of the same compound?
**A.** Its TGI is 105.2%.

**Q.** What about the “tolerability / body weight loss” value (LU2505 PDX; LU2505, all tested doses) of the same compound?
**A.** The value was “no body weight loss”.

**Q.** What about the IC50 (H460 cells) of the same compound?
**A.** The IC50 was 4 nM.
